In US11959083B2, “Immunosuppression-reverting oligonucleotides inhibiting the expression of CD39” (Secarna Pharmaceuticals GmbH & Co. KG, priority 2016, dated 2024):
l = locked nucleic acid (LNA); d = 2'-deoxy (DNA)

What was measured:
hCD39 [1] = assay: ATP degradation in primary human CD8+ T cells after hCD39 knockdown (ATP Bioluminescence Assay); format: cell-based; details: for Relative ATP levels in supernatants of CD8+ T cells 30 minutes after addition of ATP: 5 μM oligonucleotide 6 days, medium = 1
Procedure: FIG. 11A-11D show knockdown of hCD39 protein (FIG. 11A) and viability (FIG. 11B) of primary human CD8^+ T cells, isolated from peripheral blood using MACS. CD8^+ T cells were activated by plate-bound anti-human CD3 (OKT-3). Activated cells were treated with RPMI-1640 medium, medium supplemented with A04040H (SEQ ID No. 3), and medium supplemented with neg1 at 5 μM, respectively, for 6 days in total. After 3 days, medium was replaced with fresh medium containing 5 μM of A04040H (SEQ ID No. 3) and neg 1, respectively, and hCD39 protein knockdown efficacy (FIG. 11A) and viability (FIG. 11B) were analyzed on day 6 by flow cytometry. Residual hCD39 expression and viability (median of 7-AAD positive cells) is depicted compared to untreated cells (FIG. 11A-11B). The same day, cells were harvested, washed and re-plated at a constant cell number (150.000 cells/Well in a 96-Well plate) in triplicates. Then, 2 μM (FIG. 11C) or 20 μM (FIG. 11D) of ATP was added to cells or cell culture medium without cells and ATP concentration of cell supernatants or cell culture medium was determined after 30 min using the ATP Bioluminescence Assay Kit (Roche).
Additionally, the effect of hCD39 knockdown on ATP degradation was also analyzed in primary human CD8^+ T cells (FIG. 11A-11D). Activated T cells were treated with 5 μM antisense oligonucleotide A04040H (SEQ ID No. 3) or the negative control oligonucleotide neg1 for 6 days (3+3). After 3 days, RPMI-1640 medium was replaced with fresh RPMI-1640 medium containing […] of antisense oligonucleotide. Protein knockdown efficacy (FIG. 11A) and viability (FIG. 11B) were analyzed after 6 days by flow cytometry. […] On day 6, cells were re-plated at a constant cell number and ATP was added at concentrations of 2 μM (FIG. 11C) or 20 μM (FIG. 11D). ATP concentration was measured in the cell supernatants or in cell culture medium after 30 min (Table 15).

hCD39 protein = assay: Concentration- and time-dependent hCD39 protein knockdown in HDLM-2 cells (flow cytometry); format: cell-based, human; details: for inhibition of hCD39 protein: HDLM-2 cells, three, four and six days, different concentrations; for Inhibition [%] (Protein/mRNA): HDLM-2, CD39 protein
Procedure: FIG. 8 depicts concentration- and time-dependent CD39 protein knockdown by A04040H (SEQ ID No. 3) and A04045H (SEQ ID No. 4). Analysis of CD39 protein expression by flow cytometry in HDML-2 cells is given after treatment with the indicated antisense oligonucleotides for 3, 4 and 6 days. As treatment control, cells were treated with neg1 for 3, 4 and 6 days at the indicated concentrations. Relative expression compared to untreated control cells (=1) is depicted.
HDLM-2 cells were therefore treated with different concentrations of the respective antisense oligonucleotide for three, four and six days, respectively. Protein expression was analyzed by flow cytometry using the CD39 antibody (clone A1) and 7-AAD to investigate viability. […] Table 13summarizes protein knockdown efficiency of the selected human CD39 antisense oligonucleotides A04040H (SEQ ID No. 3) and A04045H (SEQ ID No. 4) in HDLM-2 cells at different time points: […]

hCD39 [2] = molecular target: T1, hCD39 (Homo sapiens, UniProt P49961); assay: ATP degradation in JIYOYE cells after hCD39 knockdown (ATP Bioluminescence Assay); format: cell-based; details: for Relative ATP levels in supernatants of JIYOYE cells 30 minutes after addition of ATP (vs. Medium control): 5 μM oligonucleotide 6 days or 20 μM ARL67156 1 h, 2 μM ATP added
T1 construct: endogenous in cells; host or cells: JIYOYE cells
T1 sequence (P49961 1-510): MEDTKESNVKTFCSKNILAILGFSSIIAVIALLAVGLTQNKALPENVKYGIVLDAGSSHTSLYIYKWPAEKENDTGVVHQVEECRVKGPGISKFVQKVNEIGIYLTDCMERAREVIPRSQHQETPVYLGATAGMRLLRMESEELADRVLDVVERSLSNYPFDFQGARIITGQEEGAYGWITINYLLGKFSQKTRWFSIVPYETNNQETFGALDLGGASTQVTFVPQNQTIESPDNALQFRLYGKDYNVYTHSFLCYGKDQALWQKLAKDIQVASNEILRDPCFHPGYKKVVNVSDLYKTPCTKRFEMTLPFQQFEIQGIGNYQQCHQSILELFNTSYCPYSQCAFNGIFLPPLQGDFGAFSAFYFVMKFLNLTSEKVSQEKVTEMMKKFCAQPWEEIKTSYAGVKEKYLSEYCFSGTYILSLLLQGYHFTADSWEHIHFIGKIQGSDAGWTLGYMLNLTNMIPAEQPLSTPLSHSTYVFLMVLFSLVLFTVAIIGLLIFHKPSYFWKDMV
Procedure: FIG. 10A-10C depict effects of hCD39 knockdown on viability and ATP concentration in JIYOYE cells. JIYOYE cells were treated with the indicated antisense oligonucleotide A04040H (SEQ ID No.3) or neg1 for 6 days in total at 5 μM. Medium was replaced with fresh oligonucleotide-containing medium after 3 days and hCD39 protein knockdown efficacy was analyzed on day 6 by flow cytometry. Residual hCD39 expression and viability of oligonucleotide-treated cells is depicted compared to untreated cells (FIG. 10A-10B). After 6 days, 20 μM of the CD39 small molecular inhibitor ARL67156 trisodium salt was added to no ASO treated cells and incubated for 1 h at 37° C. Then, 2 μM of ATP was added to cells or cell culture medium without cells from each condition and ATP concentration of cell supernatants or cell culture medium was determined after 30 min using the ATP Bioluminescence Assay Kit (Roche) (FIG. 10C).
Adenosine is one major immunosuppressive molecule generated during ATP degradation by hCD39. ATP can be detected by an ATP Bioluminescence Assay (ATP Bioluminescence Assay Kit CLS II; Roche). JIYOYE cells were treated with 5 μM antisense oligonucleotide A04040H (SEQ ID No. 3) or the negative control oligonucleotide neg1 for 6 days (3+3). After 3 days, RPMI-1640 medium was replaced with fresh RPMI-1640 medium containing 5 μM of oligonucleotide. Protein knockdown efficacy (FIG. 10A) and viability (FIG. 10B) were analyzed after 6 days by flow cytometry. […] The same day, cells that were not treated with any antisense oligonucleotide were incubated for 1 hr at 37° C. with 20 μM of the CD39 small molecular inhibitor ARL67156 trisodium salt (TOCRIS). Then, 2 μM of ATP was added to cells or cell culture medium without cells derived from each condition and ATP concentration was measured in the cell supernatants or in cell culture medium after 30 min. […] Table 14 presents the effect of hCD39 knockdown on relative ATP levels in the cell culture supernatants of JIYOYE cells: […]

[3] = JIYOYE cells, 5 μM, 6 days, 2 μM ATP, 30 min

+C*+G*+T*T*T*A*G*G*C*T*A*T*G*T*A*+C*+T*+T (CGTTTAGGCTATGTACTT; chemistry not fully specified) [neg1, negative control antisense oligonucleotide not hybridizing with CD39, described in WO2014154843 A1, reference compound]
Relative ATP levels in supernatants of CD8+ T cells 30 minutes after addition of ATP (hCD39 [1]; Added ATP (2 μmol/1)): 0
Relative ATP levels in supernatants of CD8+ T cells 30 minutes after addition of ATP (hCD39 [1]; Added ATP (20 μmol/1)): 0.12
inhibition of hCD39 protein (hCD39 protein): no inhibitory effect
Relative ATP levels in supernatants of JIYOYE cells 30 minutes after addition of ATP (vs. Medium control) (hCD39 [2]): 0.19

+G*+T*+T*T*G*T*G*T*G*A*G*A*G*C*+T*+T (antisense GTTTGTGTGAGAGCTT; sugars from the 5' end l3 d11 l2, all phosphorothioate, methylation of C not given here) [A04040H]
Relative ATP levels in supernatants of CD8+ T cells 30 minutes after addition of ATP (hCD39 [1]; Added ATP (2 μmol/1)): 0.59
Relative ATP levels in supernatants of CD8+ T cells 30 minutes after addition of ATP (hCD39 [1]; Added ATP (20 μmol/1)): 0.89
ATP concentration compared to neg 1 treated cells (hCD39 [1]; primary human CD8+ T cells, 5 μM, 6 days): about 7 ×
ATP degradation efficacy (hCD39 [1]; primary human CD8+ T cells, 5 μM, 6 days, 2 or 20 μM ATP, 30 min): nearly abolished
Inhibition [%] (Protein/mRNA) (hCD39 protein; Day 3, 0.1 μM): 46.73%
Inhibition [%] (Protein/mRNA) (hCD39 protein; Day 3, 0.5 μM): 54.75%
Inhibition [%] (Protein/mRNA) (hCD39 protein; Day 3, 1 μM): 60.56%
Inhibition [%] (Protein/mRNA) (hCD39 protein; Day 3, 10 μM): 61.36%
Inhibition [%] (Protein/mRNA) (hCD39 protein; Day 4, 0.1 μM): 70.73%
Inhibition [%] (Protein/mRNA) (hCD39 protein; Day 4, 0.5 μM): 78.25%
Inhibition [%] (Protein/mRNA) (hCD39 protein; Day 4, 1 μM): 76.96%
Inhibition [%] (Protein/mRNA) (hCD39 protein; Day 4, 10 μM): 79.11%
Inhibition [%] (Protein/mRNA) (hCD39 protein; Day 6, 0.1 μM): 87.37%
Inhibition [%] (Protein/mRNA) (hCD39 protein; Day 6, 0.5 μM): 89.36%
Inhibition [%] (Protein/mRNA) (hCD39 protein; Day 6, 1 μM): 84.12%
Inhibition [%] (Protein/mRNA) (hCD39 protein; Day 6, 10 μM): 88.84%
inhibition of hCD39 protein (hCD39 protein): potent inhibition of hCD39 protein after all indicated time points
Relative ATP levels in supernatants of JIYOYE cells 30 minutes after addition of ATP (vs. Medium control) (hCD39 [2]): 0.76
ATP concentration compared to cells treated with ARL67156 (hCD39 [2]; [3]): 2 ×
ATP concentration compared to cells treated with neg 1 (hCD39 [2]; [3]): about 4 ×
ATP degradation efficacy (hCD39 [2]; [3]): nearly abolished
